Where only a bound is given, the exact number is not on record here.

This passage reports IC50 results from patent US20210198277A1, “AMINE-SUBSTITUTED ARYL OR HETEROARYL COMPOUNDS” (Epizyme, Inc., priority 2016, published 2021).

For one experiment, the target named is T1, EHMT1 (Homo sapiens, UniProt Q9H9B1).
T1 sequence (Q9H9B1 1-1298): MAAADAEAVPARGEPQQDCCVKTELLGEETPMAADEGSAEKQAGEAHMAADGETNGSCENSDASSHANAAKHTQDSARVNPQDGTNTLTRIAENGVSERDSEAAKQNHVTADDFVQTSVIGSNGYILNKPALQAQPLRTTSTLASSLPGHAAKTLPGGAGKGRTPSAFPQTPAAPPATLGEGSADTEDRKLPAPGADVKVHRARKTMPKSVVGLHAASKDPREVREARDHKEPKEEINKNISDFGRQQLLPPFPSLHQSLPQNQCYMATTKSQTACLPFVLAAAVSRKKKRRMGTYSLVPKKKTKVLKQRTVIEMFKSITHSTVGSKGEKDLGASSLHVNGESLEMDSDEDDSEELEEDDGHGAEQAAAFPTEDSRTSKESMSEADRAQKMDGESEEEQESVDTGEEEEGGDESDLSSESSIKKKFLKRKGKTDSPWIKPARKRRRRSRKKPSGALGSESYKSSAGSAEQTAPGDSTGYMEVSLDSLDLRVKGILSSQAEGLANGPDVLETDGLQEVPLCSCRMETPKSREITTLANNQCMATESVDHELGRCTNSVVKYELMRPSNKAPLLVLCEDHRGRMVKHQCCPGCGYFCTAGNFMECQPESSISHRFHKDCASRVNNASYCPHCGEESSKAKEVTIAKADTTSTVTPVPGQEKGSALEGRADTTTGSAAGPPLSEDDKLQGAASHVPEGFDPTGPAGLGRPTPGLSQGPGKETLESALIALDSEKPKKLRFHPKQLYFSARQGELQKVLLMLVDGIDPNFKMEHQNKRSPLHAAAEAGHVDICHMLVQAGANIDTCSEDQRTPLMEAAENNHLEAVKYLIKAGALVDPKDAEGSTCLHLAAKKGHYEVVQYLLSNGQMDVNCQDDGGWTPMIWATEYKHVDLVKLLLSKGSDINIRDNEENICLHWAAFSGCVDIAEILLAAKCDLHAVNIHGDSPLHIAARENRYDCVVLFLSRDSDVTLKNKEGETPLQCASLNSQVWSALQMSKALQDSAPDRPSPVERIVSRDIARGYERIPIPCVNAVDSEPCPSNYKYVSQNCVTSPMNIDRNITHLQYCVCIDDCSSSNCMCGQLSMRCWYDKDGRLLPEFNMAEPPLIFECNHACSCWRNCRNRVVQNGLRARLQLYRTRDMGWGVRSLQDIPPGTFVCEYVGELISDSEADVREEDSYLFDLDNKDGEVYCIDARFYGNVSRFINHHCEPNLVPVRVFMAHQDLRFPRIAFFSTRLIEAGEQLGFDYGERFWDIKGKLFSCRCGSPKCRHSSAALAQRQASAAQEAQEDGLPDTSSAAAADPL
Put plainly: EHMT1 enzyme assay on peptide substrate (EHMT1 PEP). The class given is biochemical. The settings on record: Table III; read-out: EHMT1 PEP (IC50 μM).
Usually IC50 stands for the concentration that inhibits the measured activity by half. For the compound `COc1cnc(Nc2cc(C)nc3[nH]ccc23)cc1OCCCN1CCCC1` [Compound 336, N-(5-methoxy-4-(3-(pyrrolidin-1-yl)propoxy)pyridin-2-yl)-6-methyl-1H-pyrrolo[2,3-b]pyridin-4-amine], the concentration for half-maximal inhibition (IC50) fell in the range of 0.1 to 1 µM. For `COc1ccc(OCCCN2CCCC2)cc1Nc1nccc(NCC2CCOCC2)n1` [Compound 351], the IC50 is greater than 10 µM.

On to `COc1ccc(Nc2nc(C)c(F)c(NC(C)C)n2)cc1OCCCN1CCCC1` [Compound 337], for which the IC50 lay within 0.1 to 1 µM.

`COc1ccc(Nc2nccc(Nc3cccc(F)c3)n2)cc1OCCCN1CCCC1` [Compound 349]: the IC50 was 1 to 10 µM. In the case of `CNc1cc(C)nc(Nc2cnc(OC)c(OCCCN3CCCC3)c2)n1` [Compound 332, N^2-(6-methoxy-5-(3-(pyrrolidin-1-yl)propoxy)pyridin-3-yl)-N^4,6-dimethylpyrimidine-2,4-diamine], the half-maximal inhibitory concentration (IC50) is less than 0.1 µM.

In the case of `COc1ccc(Nc2nccc(-n3nc(C)cc3C)n2)cc1OCCCN1CCCC1` [Compound 338], the IC50 is greater than 10 µM. Turning to `CNc1cc(C)nc(Nc2ccc(OC)c(O[C@H]3C[C@H](CN(C)C)C3)c2)n1` [Compound 331, N^2-(3-((1r,3r)-3-((dimethylamino)methyl)cyclobutoxy)-4-methoxyphenyl)-N^4,6-dimethylpyrimidine-2,4-diamine], the IC50 was greater than 10 µM. Consider `COc1ccc(Nc2cc3c(cn2)ncn3C)cc1OCCCN1CCCC1` [Compound 258, N-(4-methoxy-3-(3-(pyrrolidin-1-yl)propoxy)phenyl)-1-methyl-1H-imidazo[4,5-c]pyridin-6-amine], for which the IC50 was greater than 10 µM. Consider `COc1ccc(Nc2nccc(NCC3CCOCC3)n2)cc1OC1CCC2(CC1)CCN(C)C2` (stereo not drawn) [Compound 259, N^2-(4-methoxy-3-((2-methyl-2-azaspiro[4.5]decan-8-yl)oxy)phenyl)-N^4-((tetrahydro-2H-pyran-4-yl)methyl)pyrimidine-2,4-diamine], for which the half-maximal inhibitory concentration (IC50) is greater than 10 µM.

The experiment is the same for the next values; noted with them: Table VI; read-out: EHMT1 PEP IC50.
Consider `COc1cc2c(C3CCN(C(C)=O)CC3)cc(C)nc2cc1OCCCN1CCCC1` [Compound 834], for which the IC50 was in the range of 0.1 to 1 µM. Turning to `CNc1cc2nccn2c(Nc2cc(OCCCN3CCCC3)c(OC)cn2)n1` [Compound 611], the 50% inhibitory concentration (IC50) fell in the range of 1 to 10 µM.

With `COc1cc2c(C3CCOCC3)cc(=O)[nH]c2cc1OCCCN1CCCC1` [Compound 822], the IC50 is greater than 10 µM. On to `CNc1cc(C)nc(Nc2ccc(OC)c(C#CC3CCCN3C)c2)n1` (stereo not drawn) [Compound 848], for which the IC50 is less than 0.1 µM. Regarding `COc1cc2c(C)nc(N3CCCCC3)nc2cc1OCCCN1CCCC1` [Compound 811], the half-inhibitory concentration (IC50) is greater than 10 µM. Regarding `COc1ccc(Nc2nn(C)c3cnccc23)cc1OCCCN1CCCC1` [Compound 794], the 50% inhibitory concentration (IC50) was greater than 10 µM.

In the case of `CNc1cc(C2CCOCC2)c2cc(OC)c(OC[C@@H]3CCNC3)cc2n1` [Compound 802], the IC50 is less than 0.1 µM. The same measure, in the same setting: next, `CNc1cc(C2CCN(CC(F)(F)F)CC2)c2cc(OC)c(OCCCN3CCCC3)cc2n1` [Compound 833]: less than 0.1 µM. The same measure, in the same setting: to `COc1cc2c(C3CCN(CC(F)(F)F)CC3)nc(C)nc2cc1OCCCN1CCCC1` [Compound 841] belongs greater than 10 µM. On to `CNc1cc(C)nc(Nc2ccc(OC)c(CN[C@@H]3CCNC3)c2)c1` [Compound 814], for which the IC50 fell in the range of 1 to 10 µM. On to `CNc1cc(C)nc(Nc2ccc(OC)c(C#CC3CCCN3)c2)n1` (stereo not drawn) [Compound 846], for which the 50% inhibitory concentration (IC50) was less than 0.1 µM. `COc1cc2c(C3CCN(C)CC3)cc(N3CCCCC3)nc2cc1OCCCN1CCCC1` [Compound 812]: the IC50 was less than 0.1 µM. As to `CNc1cc(C)nc(Nc2cc(OCCCN3CCCC3)c3nccn3c2)n1` [Compound 618], the half-maximal inhibitory concentration (IC50) was in the range of 0.1 to 1 µM. Turning to `COc1cc2c(C3CCN(CC(F)(F)F)CC3)cc(C)nc2cc1OCCCN1CCCC1` [Compound 837], the IC50 was in the range of 0.1 to 1 µM. As to `CCN1CC(COc2cc(Nc3nc(C)cc4[nH]ccc34)ncc2OC)C1` [Compound 613], the concentration for half-maximal inhibition (IC50) is less than 0.1 µM.

In the case of `CNc1cc(C)nc(Nc2ccc(OC)c(C#CC3CCNC3)c2)n1` (stereo not drawn) [Compound 845], the IC50 was less than 0.1 µM. Regarding `COc1cc2c(C3CCN(CCC(F)(F)F)CC3)cc(C)nc2cc1OCCCN1CCCC1` [Compound 838], the half-inhibitory concentration (IC50) is less than 0.1 µM. Regarding `CCS(=O)(=O)N1CCC(c2cc(C)nc3cc(OCCCN4CCCC4)c(OC)cc23)CC1` [Compound 836], the IC50 was 0.1 to 1 µM.
